Results reported in patent US11780893B2, “Kv1.3 blockers” (Zealand Pharma A/S, priority 2019, dated 2023).
Read-outs that look alike come from different tables or passages of the source. Bridge positions count the residues as written; N and C are the ends. Square brackets hold non-standard residues; d marks the D form. Peptide text beside a SMILES is read from it. Aad = N[C@@H](CCCC(=O)O)C(=O)O; hLys = NCCCCC[C@H](N)C(=O)O; Nle = CCCC[C@H](N)C(=O)O; Abu = CC[C@H](N)C(=O)O

Key:
Rat whole blood = Rat whole blood (Rattus norvegicus, UniProt P15384)
Rat whole blood, sequence (P15384 whole entry): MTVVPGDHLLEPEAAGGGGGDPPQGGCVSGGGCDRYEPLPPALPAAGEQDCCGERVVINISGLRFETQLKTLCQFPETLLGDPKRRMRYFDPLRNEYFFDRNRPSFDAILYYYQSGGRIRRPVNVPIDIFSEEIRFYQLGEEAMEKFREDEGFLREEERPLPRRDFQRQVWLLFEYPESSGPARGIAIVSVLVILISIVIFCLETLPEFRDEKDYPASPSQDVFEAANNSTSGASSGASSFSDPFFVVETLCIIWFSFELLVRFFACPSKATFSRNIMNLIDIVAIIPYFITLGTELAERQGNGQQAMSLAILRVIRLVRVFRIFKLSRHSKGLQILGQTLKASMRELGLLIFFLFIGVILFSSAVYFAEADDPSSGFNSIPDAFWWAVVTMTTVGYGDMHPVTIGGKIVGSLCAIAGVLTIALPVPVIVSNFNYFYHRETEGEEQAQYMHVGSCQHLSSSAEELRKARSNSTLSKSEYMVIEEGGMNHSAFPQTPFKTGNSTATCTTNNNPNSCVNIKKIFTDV

[1] = target: T1, human Kv1.3 voltage-gated K+ channel (Homo sapiens, UniProt P22001); experiment: cell-based; conditions: inhibition of thallium flux, CHO-DUKX cells with human Kv1.3; read-out: IC50
T1 construct: host or cells: CHO-DUKX
T1 sequence (P22001 whole entry): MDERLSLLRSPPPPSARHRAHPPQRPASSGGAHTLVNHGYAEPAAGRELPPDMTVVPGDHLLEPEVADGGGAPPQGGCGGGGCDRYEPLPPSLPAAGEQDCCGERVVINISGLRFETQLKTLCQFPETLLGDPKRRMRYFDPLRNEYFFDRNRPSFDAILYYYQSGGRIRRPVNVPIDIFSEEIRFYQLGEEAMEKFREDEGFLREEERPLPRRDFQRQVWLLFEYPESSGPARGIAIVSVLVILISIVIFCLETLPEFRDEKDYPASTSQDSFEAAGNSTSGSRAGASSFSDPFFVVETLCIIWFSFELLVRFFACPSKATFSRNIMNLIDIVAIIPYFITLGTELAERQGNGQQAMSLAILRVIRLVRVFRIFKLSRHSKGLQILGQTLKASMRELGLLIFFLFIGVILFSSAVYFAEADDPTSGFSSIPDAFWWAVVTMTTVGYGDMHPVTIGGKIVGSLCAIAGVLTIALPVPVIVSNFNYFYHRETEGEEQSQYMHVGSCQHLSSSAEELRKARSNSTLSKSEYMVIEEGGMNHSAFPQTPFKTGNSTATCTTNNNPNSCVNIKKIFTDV

[2] = inhibition of IL-17A release, thapsigargin, 24 Hr, at least 2 replicates

Row | Compound | IC50 (Rat whole blood) [nM] | IC50 (Rat whole blood; [2]) [nM] | IC50 [1] [nM]
1 | CC[C@H](C)[C@@H]1NC(=O)[C@H](C)NC(=O)[C@H](CCCCN)NC(=O)[C@H](CC(C)C)NC(=O)[C@@H]2CSSC[C@@H](C(=O)N[C@@H](Cc3ccc(O)cc3)C(=O)N3CCC[C@H]3C(=O)N[C@@H](CCCNC(=N)N)C(N)=O)NC(=O)[C@H](CCCCN)NC(=O)[C@@H]3CSSC[C@H](NC(=O)[C@H](CCC(=O)O)NC(=O)[C@H](C(C)C)NC(=O)[C@H](CO)NC(=O)[C@H](C)NC(=O)[C@H](CO)NC(=O)[C@@H](NC(=O)[C@H](CCCNC(=N)N)NC(=O)[C@H](CCSC)NC(=O)[C@H](CC(=O)O)NC(=O)[C@H](CCSC)NC(=O)[C@@H](N)CC(N)=O)CSSC[C@H](NC(=O)[C@H](CCCCN)NC(=O)CNC(=O)[C@H](Cc4ccccc4)NC(=O)[C@H]([C@@H](C)CC)NC(=O)[C@H](CO)NC(=O)[C@H](Cc4c[nH]cn4)NC1=O)C(=O)N[C@@H](CCSC)C(=O)N[C@@H](CC(N)=O)C(=O)N[C@@H](CCCCN)C(=O)N[C@@H](CCCCN)C(=O)N3)C(=O)N[C@@H](CCCCN)C(=O)N[C@@H](CCC(N)=O)C(=O)N[C@@H](CCCCN)C(=O)N2 [Compound 33] (H-NMDMRCSASVECKQKCLKAIHSIFGKCMNKKCKCYPR-NH2; disulfide 6-27, 12-32, 16-34) | ≤ 1 | 0.7 | 0.14
2 | CC[C@H](C)[C@@H]1NC(=O)[C@H](C)NC(=O)[C@H](CCCCN)NC(=O)[C@H](CC(C)C)NC(=O)[C@@H]2CSSC[C@@H](C(=O)N[C@@H](Cc3ccc(O)cc3)C(=O)N3CCC[C@H]3C(=O)N[C@@H](CCCNC(=N)N)C(N)=O)NC(=O)[C@H](C(C)C)NC(=O)[C@@H]3CSSC[C@H](NC(=O)[C@H](CCC(=O)O)NC(=O)[C@H](C(C)C)NC(=O)[C@H](CO)NC(=O)[C@H](C)NC(=O)[C@H](CO)NC(=O)[C@@H](NC(=O)[C@H](CCCNC(=N)N)NC(=O)[C@H](CCSC)NC(=O)[C@H](CC(=O)O)NC(=O)[C@H](CCSC)NC(=O)[C@@H](N)CC(N)=O)CSSC[C@H](NC(=O)[C@H](CCCCN)NC(=O)CNC(=O)[C@H](Cc4ccccc4)NC(=O)[C@H]([C@@H](C)CC)NC(=O)[C@H](CO)NC(=O)CNC1=O)C(=O)N[C@@H](CCSC)C(=O)N[C@@H](CC(N)=O)C(=O)N[C@@H](CCCCN)C(=O)N[C@@H](CCCCN)C(=O)N3)C(=O)N[C@@H](CCCCN)C(=O)N[C@@H](CCC(N)=O)C(=O)N[C@@H](CCCCN)C(=O)N2 [Compound 38] (H-NMDMRCSASVECKQKCLKAIGSIFGKCMNKKCVCYPR-NH2; disulfide 6-27, 12-32, 16-34) | – | 2.8 | 0.46
3 | CCCC[C@@H]1NC(=O)[C@@H]2CSSC[C@H](NC(=O)[C@H](CCCNC(=N)N)NC(=O)[C@H](CCCC)NC(=O)[C@H](CC(=O)O)NC(=O)[C@H](CCCC)NC(=O)[C@@H](N)CC(N)=O)C(=O)N[C@@H](CO)C(=O)N[C@@H](C)C(=O)N[C@@H](CO)C(=O)N[C@@H](C(C)C)C(=O)N[C@@H](CCC(=O)O)C(=O)N[C@H]3CSSC[C@H](NC(=O)[C@H](CCCCN)NC(=O)[C@H](CCCCN)NC(=O)[C@H](CC(N)=O)NC1=O)C(=O)N[C@@H](CCCCN)C(=O)N[C@H](C(=O)N[C@@H](Cc1ccc(O)cc1)C(=O)N1CCC[C@H]1C(=O)N[C@@H](CCCNC(=N)N)C(N)=O)CSSC[C@H](NC(=O)[C@H](CCCCN)NC(=O)[C@H](CCC(N)=O)NC(=O)[C@H](CCC(=O)O)NC3=O)C(=O)N[C@@H](CC(C)C)C(=O)N[C@@H](CCCCN)C(=O)N[C@@H](C)C(=O)N[C@@H]([C@@H](C)CC)C(=O)NCC(=O)N[C@@H](CO)C(=O)N[C@@H]([C@@H](C)CC)C(=O)N[C@@H](Cc1ccccc1)C(=O)NCC(=O)N[C@@H](CCCCN)C(=O)N2 [Compound 43] (H-N[Nle]D[Nle]RCSASVECEQKCLKAIGSIFGKC[Nle]NKKCKCYPR-NH2; disulfide 6-27, 12-32, 16-34) | ≤ 1 | 0.99 | 0.5
4 | CCCC[C@@H]1NC(=O)[C@@H]2CSSC[C@H](NC(=O)[C@H](CCCNC(=N)N)NC(=O)[C@H](CCCC)NC(=O)[C@H](CC(=O)O)NC(=O)[C@H](CCCC)NC(=O)[C@@H](N)CC(N)=O)C(=O)N[C@@H](CO)C(=O)N[C@@H](C)C(=O)N[C@@H](CO)C(=O)N[C@@H](C(C)C)C(=O)N[C@@H](CCC(=O)O)C(=O)N[C@H]3CSSC[C@H](NC(=O)[C@H](CCCCN)NC(=O)[C@H](CCCCN)NC(=O)[C@H](CC(N)=O)NC1=O)C(=O)N[C@@H](CCCCN)C(=O)N[C@H](C(=O)N[C@@H](Cc1ccc(O)cc1)C(=O)N1CCC[C@H]1C(=O)N[C@@H](CCCNC(=N)N)C(N)=O)CSSC[C@H](NC(=O)[C@H](CCCCN)NC(=O)[C@H](CCC(N)=O)NC(=O)[C@H](CCC(N)=O)NC3=O)C(=O)N[C@@H](CC(C)C)C(=O)N[C@@H](CCCCN)C(=O)N[C@@H](C)C(=O)N[C@@H]([C@@H](C)CC)C(=O)NCC(=O)N[C@@H](CO)C(=O)N[C@@H]([C@@H](C)CC)C(=O)N[C@@H](Cc1ccccc1)C(=O)NCC(=O)N[C@@H](CCCCN)C(=O)N2 [Compound 44] (H-N[Nle]D[Nle]RCSASVECQQKCLKAIGSIFGKC[Nle]NKKCKCYPR-NH2; disulfide 6-27, 12-32, 16-34) | – | 1.1 | 0.13
5 | CCCC[C@H](NC(=O)[C@H](CC(=O)O)NC(=O)[C@H](CCCC)NC(=O)[C@@H](N)CO)C(=O)N[C@@H](CCCNC(=N)N)C(=O)N[C@H]1CSSC[C@@H]2NC(=O)[C@H](CCCCN)NC(=O)CNC(=O)[C@H](Cc3ccccc3)NC(=O)[C@H]([C@@H](C)CC)NC(=O)[C@H](CO)NC(=O)CNC(=O)[C@H]([C@@H](C)CC)NC(=O)[C@H](C)NC(=O)[C@H](CCCCN)NC(=O)[C@H](CC(C)C)NC(=O)[C@@H]3CSSC[C@@H](C(=O)N[C@@H](Cc4ccc(O)cc4)C(=O)N4CCC[C@H]4C(=O)N[C@@H](CCCNC(=N)N)C(N)=O)NC(=O)[C@H](CCCCN)NC(=O)[C@H](CSSC[C@H](NC(=O)[C@H](CCC(=O)O)NC(=O)[C@H](C(C)C)NC(=O)[C@H](CC)NC(=O)[C@H](C)NC(=O)[C@H](CO)NC1=O)C(=O)N[C@@H](CCCCN)C(=O)N[C@@H](CCC(N)=O)C(=O)N[C@@H](CCCCN)C(=O)N3)NC(=O)[C@H](CCCCN)NC(=O)[C@H](CCCCN)NC(=O)[C@H](CC(N)=O)NC(=O)[C@H](CCSC)NC2=O [Compound 68] (H-S[Nle]D[Nle]RCSA[Abu]VECKQKCLKAIGSIFGKCMNKKCKCYPR-NH2; disulfide 6-27, 12-32, 16-34) | ≤ 1 | 0.93 | 0.2
6 | CCCC[C@H](NC(=O)[C@H](CC(=O)O)NC(=O)[C@H](CCCC)NC(=O)[C@@H](N)CO)C(=O)N[C@@H](CCCNC(=N)N)C(=O)N[C@H]1CSSC[C@@H]2NC(=O)[C@H](CCCCCN)NC(=O)CNC(=O)[C@H](Cc3ccccc3)NC(=O)[C@H]([C@@H](C)CC)NC(=O)[C@H](CO)NC(=O)CNC(=O)[C@H]([C@@H](C)CC)NC(=O)[C@H](C)NC(=O)[C@H](CCCCN)NC(=O)[C@H](CC(C)C)NC(=O)[C@@H]3CSSC[C@@H](C(=O)N[C@@H](Cc4ccc(O)cc4)C(=O)N4CCC[C@H]4C(=O)N[C@@H](CCCNC(=N)N)C(N)=O)NC(=O)[C@H](CCCCN)NC(=O)[C@H](CSSC[C@H](NC(=O)[C@H](CCC(=O)O)NC(=O)[C@H](C(C)C)NC(=O)[C@H](CO)NC(=O)[C@H](C)NC(=O)[C@H](CO)NC1=O)C(=O)N[C@@H](CCCCN)C(=O)N[C@@H](CCC(N)=O)C(=O)N[C@@H](CCCCN)C(=O)N3)NC(=O)[C@H](CCCCN)NC(=O)[C@H](CCCCN)NC(=O)[C@H](CC(N)=O)NC(=O)[C@H](CCSC)NC2=O [Compound 69] (H-S[Nle]D[Nle]RCSASVECKQKCLKAIGSIFG[hLys]CMNKKCKCYPR-NH2; disulfide 6-27, 12-32, 16-34) | – | 2.7 | 0.58
7 | CCCC[C@H](NC(=O)[C@H](CC(=O)O)NC(=O)[C@H](CCCC)NC(=O)[C@@H](N)CO)C(=O)N[C@@H](CCCNC(=N)N)C(=O)N[C@H]1CSSC[C@@H]2NC(=O)[C@H](CCCCN)NC(=O)CNC(=O)[C@H](Cc3ccccc3)NC(=O)[C@H]([C@@H](C)CC)NC(=O)[C@H](CO)NC(=O)CNC(=O)[C@H]([C@@H](C)CC)NC(=O)[C@H](C)NC(=O)[C@H](CCCCN)NC(=O)[C@H](CC(C)C)NC(=O)[C@@H]3CSSC[C@@H](C(=O)N[C@@H](Cc4ccc(O)cc4)C(=O)N4CCC[C@H]4C(=O)N[C@@H](CCCNC(=N)N)C(N)=O)NC(=O)[C@H](CCCCN)NC(=O)[C@H](CSSC[C@H](NC(=O)[C@H](CCC(=O)O)NC(=O)[C@H](C(C)C)NC(=O)[C@H](CO)NC(=O)[C@H](C)NC(=O)[C@H](CO)NC1=O)C(=O)N[C@@H](C(C)C)C(=O)N[C@@H](CCC(N)=O)C(=O)N[C@@H](CCCCN)C(=O)N3)NC(=O)[C@H](CCCCN)NC(=O)[C@H](CCCCN)NC(=O)[C@H](CC(N)=O)NC(=O)[C@H](CCSC)NC2=O [Compound 72] (H-S[Nle]D[Nle]RCSASVECVQKCLKAIGSIFGKCMNKKCKCYPR-NH2; disulfide 6-27, 12-32, 16-34) | ≤ 1 | 0.47 | 0.19
8 | CCCC[C@H](NC(=O)[C@H](CC(=O)O)NC(=O)[C@H](CCCC)NC(=O)[C@@H](N)CO)C(=O)N[C@@H](CCCNC(=N)N)C(=O)N[C@H]1CSSC[C@@H]2NC(=O)[C@H](CCCCN)NC(=O)CNC(=O)[C@H](Cc3ccccc3)NC(=O)[C@H]([C@@H](C)CC)NC(=O)[C@H](CO)NC(=O)CNC(=O)[C@H]([C@@H](C)CC)NC(=O)[C@H](C)NC(=O)[C@H](CCCCN)NC(=O)[C@H](CC(C)C)NC(=O)[C@@H]3CSSC[C@@H](C(=O)N[C@@H](Cc4ccc(O)cc4)C(=O)N4CCC[C@H]4C(=O)N[C@@H](CCCNC(=N)N)C(N)=O)NC(=O)[C@H](CCCCN)NC(=O)[C@H](CSSC[C@H](NC(=O)[C@H](CCC(=O)O)NC(=O)[C@H](C(C)C)NC(=O)[C@H](CO)NC(=O)[C@H](C)NC(=O)[C@H](CO)NC1=O)C(=O)N[C@@H](CCCCN)C(=O)N[C@@H](CCCC(=O)O)C(=O)N[C@@H](CCCCN)C(=O)N3)NC(=O)[C@H](CCCCN)NC(=O)[C@H](CCCCN)NC(=O)[C@H](CC(N)=O)NC(=O)[C@H](CCSC)NC2=O [Compound 73] (H-S[Nle]D[Nle]RCSASVECK[Aad]KCLKAIGSIFGKCMNKKCKCYPR-NH2; disulfide 6-27, 12-32, 16-34) | ≤ 1 | 0.52 | 0.11
